Assay results taken from ChEMBL document CHEMBL3112480, “γ-Alkylidene-γ-lactones and isobutylpyrrol-2(5H)-ones analogues to rubrolides as inhibitors of biofilm formation by gram-positive and gram-negative bacteria” (Bioorg Med Chem Lett, 2014).
≈ marks a conversion by molar mass, not a printed value.

Tests used:
Staphylococcus aureus [1] = experiment: Antibacterial activity against Staphylococcus aureus ATCC 25923 assessed as effect on planktonic growth at 0.17 ug/ml after 20 hrs relative to control; assay type: functional
[2] = test system: Staphylococcus epidermidis; experiment: Antibacterial activity against Staphylococcus epidermidis ATCC 35547 assessed as effect on planktonic growth at 87.5 ug/ml after 20 hrs relative to control; assay type: functional
[3] = test system: Staphylococcus epidermidis; experiment: Antibacterial activity against Staphylococcus epidermidis ATCC 35547 assessed as effect on planktonic growth at 1.37 ug/ml after 20 hrs relative to control; assay type: functional
Streptococcus mutans [4] = experiment: Antibacterial activity against Streptococcus mutans ATCC 25175 assessed as effect on planktonic growth at 21.9 ug/ml after 20 hrs relative to control; assay type: functional
Pseudomonas aeruginosa [5] = experiment: Antibacterial activity against Pseudomonas aeruginosa ATCC 27853 assessed as inhibition of biofilm formation after 20 hrs by crystal-violet staining method; assay type: functional, organism-based; details: for IC50: ATCC 27853, 20 h
[6] = test system: Staphylococcus epidermidis; experiment: Antibacterial activity against Staphylococcus epidermidis ATCC 35547 assessed as effect on planktonic growth at 2.73 ug/ml after 20 hrs relative to control; assay type: functional
Staphylococcus aureus [7] = experiment: Antibacterial activity against Staphylococcus aureus ATCC 25923 assessed as effect on planktonic growth at 0.34 ug/ml after 20 hrs relative to control; assay type: functional
Pseudomonas aeruginosa [8] = experiment: Antibacterial activity against Pseudomonas aeruginosa ATCC 27853 assessed as effect on planktonic growth at 0.34 ug/ml after 20 hrs relative to control; assay type: functional
Staphylococcus aureus [9] = experiment: Antibacterial activity against Staphylococcus aureus ATCC 25923 assessed as effect on planktonic growth at 43.8 ug/ml after 20 hrs relative to control; assay type: functional
Staphylococcus aureus [10] = experiment: Antibacterial activity against Staphylococcus aureus ATCC 25923 assessed as effect on planktonic growth at 0.68 ug/ml after 20 hrs relative to control; assay type: functional
[11] = test system: Staphylococcus epidermidis; experiment: Antibacterial activity against Staphylococcus epidermidis ATCC 35547 assessed as effect on planktonic growth at 5.5 ug/ml after 20 hrs relative to control; assay type: functional
Streptococcus mutans [12] = experiment: Antibacterial activity against Streptococcus mutans ATCC 25175 assessed as effect on planktonic growth at 5.5 ug/ml after 20 hrs relative to control; assay type: functional
[13] = test system: Staphylococcus epidermidis; experiment: Antibacterial activity against Staphylococcus epidermidis ATCC 35547 assessed as effect on planktonic growth at 21.9 ug/ml after 20 hrs relative to control; assay type: functional
Streptococcus mutans [14] = experiment: Antibacterial activity against Streptococcus mutans ATCC 25175 assessed as effect on planktonic growth at 87.5 ug/ml after 20 hrs relative to control; assay type: functional
Streptococcus mutans [15] = experiment: Antibacterial activity against Streptococcus mutans ATCC 25175 assessed as effect on planktonic growth at 1.37 ug/ml after 20 hrs relative to control; assay type: functional
Streptococcus mutans [16] = experiment: Antibacterial activity against Streptococcus mutans ATCC 25175 assessed as effect on planktonic growth at 43.8 ug/ml after 20 hrs relative to control; assay type: functional
[17] = test system: Staphylococcus epidermidis; experiment: Antibacterial activity against Staphylococcus epidermidis ATCC 35547 assessed as effect on planktonic growth at 0.34 ug/ml after 20 hrs relative to control; assay type: functional
Streptococcus mutans [18] = experiment: Antibacterial activity against Streptococcus mutans ATCC 25175 assessed as effect on planktonic growth at 0.68 ug/ml after 20 hrs relative to control; assay type: functional
[19] = test system: Staphylococcus epidermidis; experiment: Antibacterial activity against Staphylococcus epidermidis ATCC 35547 assessed as effect on planktonic growth at 0.17 ug/ml after 20 hrs relative to control; assay type: functional
Pseudomonas aeruginosa [20] = experiment: Antibacterial activity against Pseudomonas aeruginosa ATCC 27853 assessed as effect on planktonic growth at 10.9 ug/ml after 20 hrs relative to control; assay type: functional
Staphylococcus aureus [21] = experiment: Antibacterial activity against Staphylococcus aureus ATCC 25923 assessed as effect on planktonic growth at 21.9 ug/ml after 20 hrs relative to control; assay type: functional
Pseudomonas aeruginosa [22] = experiment: Antibacterial activity against Pseudomonas aeruginosa ATCC 27853 assessed as effect on planktonic growth at 43.8 ug/ml after 20 hrs relative to control; assay type: functional
Pseudomonas aeruginosa [23] = experiment: Antibacterial activity against Pseudomonas aeruginosa ATCC 27853 assessed as effect on planktonic growth at 21.9 ug/ml after 20 hrs relative to control; assay type: functional
Pseudomonas aeruginosa [24] = experiment: Antibacterial activity against Pseudomonas aeruginosa ATCC 27853 assessed as effect on planktonic growth at 2.73 ug/ml after 20 hrs relative to control; assay type: functional
[25] = test system: Staphylococcus epidermidis; experiment: Antibacterial activity against Staphylococcus epidermidis ATCC 35547 assessed as effect on planktonic growth at 0.68 ug/ml after 20 hrs relative to control; assay type: functional
Staphylococcus aureus [26] = experiment: Antibacterial activity against Staphylococcus aureus ATCC 25923 assessed as effect on planktonic growth at 10.9 ug/ml after 20 hrs relative to control; assay type: functional
Pseudomonas aeruginosa [27] = experiment: Antibacterial activity against Pseudomonas aeruginosa ATCC 27853 assessed as effect on planktonic growth at 87.5 ug/ml after 20 hrs relative to control; assay type: functional
Pseudomonas aeruginosa [28] = experiment: Antibacterial activity against Pseudomonas aeruginosa ATCC 27853 assessed as effect on planktonic growth at 0.17 ug/ml after 20 hrs relative to control; assay type: functional
[29] = test system: Staphylococcus epidermidis; experiment: Antibacterial activity against Staphylococcus epidermidis ATCC 35547 assessed as effect on planktonic growth at 43.8 ug/ml after 20 hrs relative to control; assay type: functional
[30] = test system: Staphylococcus epidermidis; experiment: Antibacterial activity against Staphylococcus epidermidis ATCC 35547 assessed as effect on planktonic growth at 10.9 ug/ml after 20 hrs relative to control; assay type: functional
Pseudomonas aeruginosa [31] = experiment: Antibacterial activity against Pseudomonas aeruginosa ATCC 27853 assessed as effect on planktonic growth at 1.37 ug/ml after 20 hrs relative to control; assay type: functional
Staphylococcus aureus [32] = experiment: Antibacterial activity against Staphylococcus aureus ATCC 25923 assessed as effect on planktonic growth at 2.73 ug/ml after 20 hrs relative to control; assay type: functional
Streptococcus mutans [33] = experiment: Antibacterial activity against Streptococcus mutans ATCC 25175 assessed as effect on planktonic growth at 10.9 ug/ml after 20 hrs relative to control; assay type: functional
Pseudomonas aeruginosa [34] = experiment: Antibacterial activity against Pseudomonas aeruginosa ATCC 27853 assessed as effect on planktonic growth at 0.68 ug/ml after 20 hrs relative to control; assay type: functional
[35] = test system: Staphylococcus epidermidis; experiment: Antibacterial activity against Staphylococcus epidermidis ATCC 35547 assessed as inhibition of biofilm formation after 20 hrs by crystal-violet staining method; assay type: functional, organism-based; details: for IC50: ATCC 35547, 20 h
Staphylococcus aureus [36] = experiment: Antibacterial activity against Staphylococcus aureus ATCC 25923 assessed as effect on planktonic growth at 1.37 ug/ml after 20 hrs relative to control; assay type: functional
Staphylococcus aureus [37] = experiment: Antibacterial activity against Staphylococcus aureus ATCC 25923 assessed as effect on planktonic growth at 87.5 ug/ml after 20 hrs relative to control; assay type: functional
Staphylococcus aureus [38] = experiment: Antibacterial activity against Staphylococcus aureus ATCC 25923 assessed as inhibition of biofilm formation at 44 ug/ml after 20 hrs by crystal-violet staining method relative to control; assay type: functional; details: ATCC 25923, 20 h
Streptococcus mutans [39] = experiment: Antibacterial activity against Streptococcus mutans ATCC 25175 assessed as effect on planktonic growth at 0.17 ug/ml after 20 hrs relative to control; assay type: functional
Staphylococcus aureus [40] = experiment: Antibacterial activity against Staphylococcus aureus ATCC 25923 assessed as effect on planktonic growth at 5.5 ug/ml after 20 hrs relative to control; assay type: functional
Streptococcus mutans [41] = experiment: Antibacterial activity against Streptococcus mutans ATCC 25175 assessed as effect on planktonic growth at 2.73 ug/ml after 20 hrs relative to control; assay type: functional
Pseudomonas aeruginosa [42] = experiment: Antibacterial activity against Pseudomonas aeruginosa ATCC 27853 assessed as effect on planktonic growth at 5.5 ug/ml after 20 hrs relative to control; assay type: functional
Streptococcus mutans [43] = experiment: Antibacterial activity against Streptococcus mutans ATCC 25175 assessed as effect on planktonic growth at 0.34 ug/ml after 20 hrs relative to control; assay type: functional
Staphylococcus aureus [44] = experiment: Antibacterial activity against Staphylococcus aureus ATCC 25923 assessed as inhibition of biofilm formation after 20 hrs by crystal-violet staining method; assay type: functional, organism-based; details: ATCC 25923, 20 h

COc1ccc(C)cc1C1=C(Br)C(=O)N(CC(C)C)/C1=C/c1ccccc1Cl
Activity (Staphylococcus aureus [1]): -6.6% | Activity [2]: 23.5% | Activity [3]: -2.3% | Activity (Streptococcus mutans [4]): 13.8% | inhibition (Pseudomonas aeruginosa [5]): Dose-dependent effect | IC50 (Pseudomonas aeruginosa [5]): 1.4 µg/mL (≈ 3.04 µM) | Activity [6]: 0.4% | Activity (Staphylococcus aureus [7]): -6.6% | Activity (Pseudomonas aeruginosa [8]): 0.6% | Activity (Staphylococcus aureus [9]): 4.6% | Activity (Staphylococcus aureus [10]): -3.6% | Activity [11]: -1% | Activity (Streptococcus mutans [12]): 25.4% | Activity [13]: 5.9% | Activity (Streptococcus mutans [14]): 20.1% | Activity (Streptococcus mutans [15]): 20.6% | Activity (Streptococcus mutans [16]): 20.1% | Activity [17]: 3.6% | Activity (Streptococcus mutans [18]): 9% | Activity [19]: -2.9% | Activity (Pseudomonas aeruginosa [20]): -15% | Activity (Staphylococcus aureus [21]): -13.2% | Activity (Pseudomonas aeruginosa [22]): -7.7% | Activity (Pseudomonas aeruginosa [23]): -13.2% | Activity (Pseudomonas aeruginosa [24]): -18.8% | Activity [25]: -6.1% | Activity (Staphylococcus aureus [26]): -11.2% | Activity (Pseudomonas aeruginosa [27]): -4.3% | Activity (Pseudomonas aeruginosa [28]): 1.2% | Activity [29]: 26.9% | Activity [30]: 6% | Activity (Pseudomonas aeruginosa [31]): -10% | Activity (Staphylococcus aureus [32]): -10.4% | Activity (Streptococcus mutans [33]): 18.6% | Activity (Pseudomonas aeruginosa [34]): -2.7% | inhibition [35]: Dose-dependent effect | IC50 [35]: > 87.5 µg/mL | Activity (Staphylococcus aureus [36]): -4.6% | Activity (Staphylococcus aureus [37]): 20.1% | inhibition at 44 µg/mL (Staphylococcus aureus [38]): 34% | Activity (Streptococcus mutans [39]): 11.9% | Activity (Staphylococcus aureus [40]): -9.4% | Activity (Streptococcus mutans [41]): 24.3% | Activity (Pseudomonas aeruginosa [42]): -17.8% | Activity (Streptococcus mutans [43]): 18.1%

COc1ccc(Cl)cc1C1=C(Br)C(=O)N(CC(C)C)C1(O)Cc1ccccc1Br (stereo unspecified)
Activity (Staphylococcus aureus [1]): 8.4% | Activity [2]: 17.6% | Activity [3]: 7.8% | Activity (Streptococcus mutans [4]): 15.4% | inhibition (Pseudomonas aeruginosa [5]): Dose-dependent effect | IC50 (Pseudomonas aeruginosa [5]): > 87.5 µg/mL | Activity [6]: 21.5% | Activity (Staphylococcus aureus [7]): 6.2% | Activity (Pseudomonas aeruginosa [8]): -9.6% | Activity (Staphylococcus aureus [9]): 12.8% | Activity (Staphylococcus aureus [10]): 3.7% | Activity [11]: 6.4% | Activity (Streptococcus mutans [12]): 9% | Activity [13]: 13.2% | Activity (Streptococcus mutans [14]): 24.4% | Activity (Streptococcus mutans [15]): 3.5% | Activity (Streptococcus mutans [16]): 24.4% | Activity [17]: 2.6% | Activity (Streptococcus mutans [18]): -7.7% | Activity [19]: 9.4% | Activity (Pseudomonas aeruginosa [20]): -14.9% | Activity (Staphylococcus aureus [21]): 4.2% | Activity (Pseudomonas aeruginosa [22]): 5.7% | IC50 (Staphylococcus aureus [44]): 6.8 µM | Activity (Pseudomonas aeruginosa [23]): -9.2% | Activity (Pseudomonas aeruginosa [24]): -13.8% | Activity [25]: 9.4% | Activity (Staphylococcus aureus [26]): -2.4% | Activity (Pseudomonas aeruginosa [27]): 24.8% | Activity (Pseudomonas aeruginosa [28]): -7.2% | Activity [29]: 28.8% | Activity [30]: 4.2% | Activity (Pseudomonas aeruginosa [31]): -5.6% | Activity (Staphylococcus aureus [32]): -1.3% | Activity (Streptococcus mutans [33]): 9% | Activity (Pseudomonas aeruginosa [34]): -6.4% | inhibition [35]: Dose-dependent effect | IC50 [35]: 83.4 µg/mL (≈ 153 µM) | Activity (Staphylococcus aureus [36]): 5.9% | Activity (Staphylococcus aureus [37]): 14.3% | inhibition at 44 µg/mL (Staphylococcus aureus [38]): 53.1% | Activity (Streptococcus mutans [39]): -16.1% | Activity (Staphylococcus aureus [40]): -9% | Activity (Streptococcus mutans [41]): 1.6% | Activity (Pseudomonas aeruginosa [42]): -13.5% | Activity (Streptococcus mutans [43]): -13.8%
